Measurements published in US20220395522A1, “Methods of Use of Glucosamine for Increasing Nitrogen Retention” (TSI Bioproducts (Xuzhou) Co., Ltd., priority 2021, published 2022).
Where two headings read alike, the source gives them in different places.

Assay type: in vivo, human
Conditions: for Fecal 3-Hydroxybutyrate / Fecal Acetate / Fecal Alanine / Fecal Butyrate / Fecal Cadaverine / Fecal Ethanol / Fecal Formate / Fecal Fumarate / Fecal Glucose / Fecal Glutamate / Fecal Glycerol / Fecal Glycine / Fecal Hypoxanthine / Fecal Isobutyrate / Fecal Isoleucine / Fecal Isovalerate / Fecal Lactate / Fecal Leucine / Fecal Lysine / Fecal Methionine / Fecal Methionine-sulfoxide / Fecal N-Acetylglucosamine / Fecal Nicotinate / Fecal Phenylacetate / Fecal Phenylalanine / Fecal Proline / Fecal Propionate / Fecal Putrescine / Fecal Ribose / Fecal Succinate / Fecal Threonine / Fecal Total AA / Fecal Total BCAAs / Fecal Total SCFA / Fecal Tyrosine / Fecal Uracil / Fecal Urocanate / Fecal Valerate / Fecal Valine / Fecal Xylose / Fecal p-Cresol: GLU condition, mean ± SD
Text: Stool specimens were collected at four time points throughout the entire study protocol. The first two samples were collected before and after the first supplementation period while the final two samples were collected before and after the second supplementation period. All stool specimens were collected no more than 24-hours prior to that study participant being scheduled to complete their laboratory visit. All samples were immediately frozen after sample collection by the study participants. Participants were instructed to keep their samples in the freezer and to remove them at the latest possible time to minimize thawing during transfer to the laboratory for storage. Participants were provided with all materials necessary to collect, store, and transport the stool specimen including commode fecal collection system, fecal collection tubes with screw top lids and scoops attached, disposable gloves, freezer packs, specimen labels, and transfer containers. Participants were instructed to raise the toilet seat and place the stool collection frame on the back of the toilet bowl and then lower the toilet seat down and place collection bowl in frame. Participants then sat on the toilet and collected a stool sample into the container. Participants were instructed, if possible, to not urinate into the collection container. Participants then extracted a representative stool sample and filled each of the two provided sample collection tubes. Tubes were then secured, labeled, and frozen. All remaining stool was discarded into the toilet and flushed. Upon arrival in the laboratory each sample was immediately stored at −80° C.
A Fecal Metabolome Analysis was further conducted. Samples were manually homogenized with a sterile microspatula, and approximately 250 mg of fecal material was weighed and extracted using 1.5 mL of ice-cold Dulbecco's phosphate buffered saline (DPBS, 1×, pH 7.4). After extraction, samples were centrifuged, and the pellet was dried using a Labconco FreeZone 4.5 L Freeze Dry System to determine fecal dry weight. The supernatant was sequentially filtered through a 0.22 μm pore-size syringe filter (Millex-GP syringe filter, Millipore, Billerica, Mass.) to remove microbes followed by a 3 kDa ultracentrifugal filter (Amicon ultracentrifugal filter, Millipore, Billerica, Mass.) to remove any excess proteins. To 207 […], 23 […] (5 mM DSS-d6 (trimethylsilylpropanesulfonate) containing 0.2% NaN3 in 99.8% D20 was added to aid in quantification of metabolites. The pH of each sample was adjusted to 6.8±0.1 through addition of small amounts of NaOH or HCl. Samples were transferred to 3 mm Bruker NMR tubes (Bruker, Brillerica, Mass.) and stored at 4° C. until spectral acquisition. Nuclear magnetic resonance (NMR) spectra were acquired using a Bruker Avance 600 MHz NMR spectrometer equipped with a SampleJet autosampler (Bruker BioSpin, Germany) at 298 K using the NOESY 1H presaturation experiment (‘noesypr1d’). Data were acquired with a spectral width of 12 ppm, a 2.5-second acquisition time, a relaxation delay of 2.5 seconds, and a 100-millisecond mixing time using 32 transients and 8 dummy scans. Water saturation was applied during the relaxation delay and mixing time. Each spectrum was Fourier Transformed with zero filling to 128,000 data points, and the resulting Free Induction Decay (FID) was transformed with an exponential apodization function corresponding to a line-broadening of 0.5 Hz. Spectra were subsequently phased and baseline corrected using Chenomx NMRSuite Processor v8.3 (Chenomx Inc., Edmonton, Canada). Metabolites were identified and quantified based on the known concentration of the internal standard, using Chenomx NMRSuite Profiler v8.3 based on the established method of targeted profiling.

[1] = Post 21 days, 3 x 1,000 mg/day oral

In the case of `Cl.N[C@H]1C(O)O[C@H](CO)[C@@H](O)[C@@H]1O` (some centres unmarked) [GLU, glucosamine hydrochloride], the “Fecal 3-Hydroxybutyrate” value [1] is reported as 76 ± 35, the “Fecal Acetate” value [1] is reported as 43,680 ± 11,351 and the “Fecal Alanine” value [1] is reported as 2228 ± 721. The “Fecal Butyrate” value [1] was 13,538 ± 6558, the “Fecal Cadaverine” value [1] was 165 ± 56 and the “Fecal Ethanol” value [1] was 272 ± 187. The “Fecal Formate” value [1] was 403 ± 299, the “Fecal Fumarate” value [1] was 218 ± 115 and the “Fecal Glucose” value [1] was 3334 ± 2753. For the same molecule, the “Fecal Glutamate” value [1] was 6773 ± 2223, the “Fecal Glycerol” value [1] was 6397 ± 3575 and the “Fecal Glycine” value [1] was 965 ± 399. For the same molecule, the “Fecal Hypoxanthine” value [1] was 325 ± 143, the “Fecal Isobutyrate” value [1] was 1956 ± 1334 and the “Fecal Isoleucine” value [1] was 777 ± 388. The “Fecal Isovalerate” value [1] was 1712 ± 1304, the “Fecal Lactate” value [1] was 172 ± 396 and the “Fecal Leucine” value [1] was 1094 ± 496. For the same molecule, the “Fecal Lysine” value [1] was 1454 ± 554, the “Fecal Methionine” value [1] was 352 ± 210 and the “Fecal Methionine-sulfoxide” value [1] was 202 ± 149. The “Fecal N-Acetylglucosamine” value [1] was 187 ± 152, the “Fecal Nicotinate” value [1] was 271 ± 106 and the “Fecal Phenylacetate” value [1] was 999 ± 786. The “Fecal Phenylalanine” value [1] was 544 ± 208, the “Fecal Proline” value [1] was 654 ± 326 and the “Fecal Propionate” value [1] was 12,663 ± 5766. The “Fecal Putrescine” value [1] was 115 ± 61, the “Fecal Ribose” value [1] was 1332 ± 533 and the “Fecal Succinate” value [1] was 758 ± 430. The “Fecal Threonine” value [1] was 659 ± 252, the “Fecal Total AA” value [1] was 17,208 ± 5190 and the “Fecal Total BCAAs” value [1] was 2873 ± 1312. For the same molecule, the “Fecal Total SCFA” value [1] was 76,527 ± 25,492, the “Fecal Tyrosine” value [1] was 707 ± 273 and the “Fecal Uracil” value [1] was 684 ± 287. For the same molecule, the “Fecal Urocanate” value [1] was 85 ± 48, the “Fecal Valerate” value [1] was 2574 ± 1519 and the “Fecal Valine” value [1] was 1003 ± 451. For the same molecule, the “Fecal Xylose” value [1] was 702 ± 545, the “Fecal p-Cresol” value [1] was 551 ± 537 and the “Fecal 3-Hydroxybutyrate” value (Pre (baseline)) was 89 ± 62. For the same molecule, the “Fecal Acetate” value (Pre (baseline)) was 40,675 ± 12,876, the “Fecal Alanine” value (Pre (baseline)) was 2667 ± 1134 and the “Fecal Butyrate” value (Pre (baseline)) was 11,370 ± 5781. The “Fecal Cadaverine” value (Pre (baseline)) was 170 ± 52, the “Fecal Ethanol” value (Pre (baseline)) was 169 ± 98 and the “Fecal Formate” value (Pre (baseline)) was 298 ± 166. The “Fecal Fumarate” value (Pre (baseline)) was 225 ± 151, the “Fecal Glucose” value (Pre (baseline)) was 2229 ± 2054 and the “Fecal Glutamate” value (Pre (baseline)) was 8882 ± 3831. For the same molecule, the “Fecal Glycerol” value (Pre (baseline)) was 7458 ± 7347, the “Fecal Glycine” value (Pre (baseline)) was 1207 ± 514 and the “Fecal Hypoxanthine” value (Pre (baseline)) was 414 ± 190. For the same molecule, the “Fecal Isobutyrate” value (Pre (baseline)) was 2097 ± 887, the “Fecal Isoleucine” value (Pre (baseline)) was 1029 ± 462 and the “Fecal Isovalerate” value (Pre (baseline)) was 1885 ± 886. The “Fecal Lactate” value (Pre (baseline)) was 60 ± 49, the “Fecal Leucine” value (Pre (baseline)) was 1422 ± 622 and the “Fecal Lysine” value (Pre (baseline)) was 1834 ± 815. For the same molecule, the “Fecal Methionine” value (Pre (baseline)) was 424 ± 290, the “Fecal Methionine-sulfoxide” value (Pre (baseline)) was 258 ± 191 and the “Fecal N-Acetylglucosamine” value (Pre (baseline)) was 249 ± 147. The “Fecal Nicotinate” value (Pre (baseline)) was 327 ± 162, the “Fecal Phenylacetate” value (Pre (baseline)) was 1095 ± 511 and the “Fecal Phenylalanine” value (Pre (baseline)) was 629 ± 280. The “Fecal Proline” value (Pre (baseline)) was 687 ± 280, the “Fecal Propionate” value (Pre (baseline)) was 12,596 ± 4145 and the “Fecal Putrescine” value (Pre (baseline)) was 92 ± 59. The “Fecal Ribose” value (Pre (baseline)) was 1428 ± 760, the “Fecal Succinate” value (Pre (baseline)) was 635 ± 289 and the “Fecal Threonine” value (Pre (baseline)) was 831 ± 355. The “Fecal Total AA” value (Pre (baseline)) was 21,838 ± 8104, the “Fecal Total BCAAs” value (Pre (baseline)) was 3802 ± 1674 and the “Fecal Total SCFA” value (Pre (baseline)) was 71,612 ± 22,891. The “Fecal Tyrosine” value (Pre (baseline)) was 874 ± 394, the “Fecal Uracil” value (Pre (baseline)) was 922 ± 352 and the “Fecal Urocanate” value (Pre (baseline)) was 104 ± 57. The “Fecal Valerate” value (Pre (baseline)) was 2691 ± 1314, the “Fecal Valine” value (Pre (baseline)) was 1351 ± 610 and the “Fecal Xylose” value (Pre (baseline)) was 441 ± 420. For the same molecule, the “Fecal p-Cresol” value (Pre (baseline)) was 597 ± 330, the “Fecal 3-Hydroxybutyrate, %” value (PLA vs. GLU, between-group) was 4.3% and the “Fecal Acetate, %” value (PLA vs. GLU, between-group) was 0.5%. For the same molecule, the “Fecal Alanine, %” value (PLA vs. GLU, between-group) was −33.4%, the “Fecal Butyrate, %” value (PLA vs. GLU, between-group) was 14.3% and the “Fecal Cadaverine, %” value (PLA vs. GLU, between-group) was −29.1%. For the same molecule, the “Fecal Ethanol, %” value (PLA vs. GLU, between-group) was 123.7%, the “Fecal Formate, %” value (PLA vs. GLU, between-group) was 30.7% and the “Fecal Fumarate, %” value (PLA vs. GLU, between-group) was −29.4%. For the same molecule, the “Fecal Glucose, %” value (PLA vs. GLU, between-group) was 61.4%, the “Fecal Glutamate, %” value (PLA vs. GLU, between-group) was −30.7% and the “Fecal Glycerol, %” value (PLA vs. GLU, between-group) was −33.0%. For the same molecule, the “Fecal Glycine, %” value (PLA vs. GLU, between-group) was −34.5%, the “Fecal Hypoxanthine, %” value (PLA vs. GLU, between-group) was −27.1% and the “Fecal Isobutyrate, %” value (PLA vs. GLU, between-group) was −38.6%. For the same molecule, the “Fecal Isoleucine, %” value (PLA vs. GLU, between-group) was −40.5%, the “Fecal Isovalerate, %” value (PLA vs. GLU, between-group) was −18.9% and the “Fecal Lactate, %” value (PLA vs. GLU, between-group) was 107.7%. For the same molecule, the “Fecal Leucine, %” value (PLA vs. GLU, between-group) was −28.4%, the “Fecal Lysine, %” value (PLA vs. GLU, between-group) was −32.1% and the “Fecal Methionine, %” value (PLA vs. GLU, between-group) was −23.7%. For the same molecule, the “Fecal Methionine-sulfoxide, %” value (PLA vs. GLU, between-group) was 37.4%, the “Fecal N-Acetylglucosamine, %” value (PLA vs. GLU, between-group) was −34.9% and the “Fecal Nicotinate, %” value (PLA vs. GLU, between-group) was −6.6%. For the same molecule, the “Fecal Phenylacetate, %” value (PLA vs. GLU, between-group) was −30.6%, the “Fecal Phenylalanine, %” value (PLA vs. GLU, between-group) was −15.6% and the “Fecal Proline, %” value (PLA vs. GLU, between-group) was −5.7%. The “Fecal Propionate, %” value (PLA vs. GLU, between-group) was −10.0%, the “Fecal Putrescine, %” value (PLA vs. GLU, between-group) was 5.0% and the “Fecal Ribose, %” value (PLA vs. GLU, between-group) was −37.4%. The “Fecal Succinate, %” value (PLA vs. GLU, between-group) was 8.0%, the “Fecal Threonine, %” value (PLA vs. GLU, between-group) was −31.8% and the “Fecal Total AA, %” value (PLA vs. GLU, between-group) was −31.0%. The “Fecal Total BCAAs, %” value (PLA vs. GLU, between-group) was −36.5%, the “Fecal Total SCFA, %” value (PLA vs. GLU, between-group) was −1.3% and the “Fecal Tyrosine, %” value (PLA vs. GLU, between-group) was −30.5%. For the same molecule, the “Fecal Uracil, %” value (PLA vs. GLU, between-group) was −34.7%, the “Fecal Urocanate, %” value (PLA vs. GLU, between-group) was −38.7% and the “Fecal Valerate, %” value (PLA vs. GLU, between-group) was −36.0%. For the same molecule, the “Fecal Valine, %” value (PLA vs. GLU, between-group) was −42.4%, the “Fecal Xylose, %” value (PLA vs. GLU, between-group) was 70.8% and the “Fecal p-Cresol, %” value (PLA vs. GLU, between-group) was −27.7%. The “Fecal glutamate, isoleucine, leucine and valine content” value (compared to baseline, p<0.05) was “significantly reduced”, the “Total amino acids, change” value (compared to baseline, p<0.05) was −21% and the “Total branched-chain amino acid, change” value (compared to baseline, p<0.05) was −24%. The “Fecal nucleotides (uracil)” value (compared to baseline, p=0.02) was “significantly reduced” and the “Effect on individual or total short-chain fatty acids” value (p>0.05) was “no effect”.
